Results reported in PubChem BioAssay (NCI).
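Protocol summary: plate cells (96-well), add compound at 5 concentrations, incubate 48 h, interpolate endpoints linearly. The concentration for 50% growth inhibition is given as GI50. TGI: total growth inhibition.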 Where a SMILES comes first, the peptide text is derived from it. Bridges are numbered along the chain shown (N, C = ends).

Experiments:
Assay in all cases: DTP human tumour cell line panel, 48 h
IGROV1 ovarian = test system: IGROV1 ovarian
MOLT-4 leukemia = test system: MOLT-4 leukemia
NCI-H460 lung = test system: NCI-H460 lung
OVCAR-4 ovarian = test system: OVCAR-4 ovarian
SF-295 CNS = test system: SF-295 CNS
SK-MEL-28 melanoma = test system: SK-MEL-28 melanoma
SNB-19 CNS = test system: SNB-19 CNS
SR leukemia = test system: SR leukemia
COLO 205 colon = test system: COLO 205 colon
NCI-H226 lung = test system: NCI-H226 lung

| Compound | TGI (IGROV1 ovarian) | TGI (MOLT-4 leukemia) | TGI (NCI-H460 lung) | TGI (OVCAR-4 ovarian) | TGI (SF-295 CNS) | TGI (SK-MEL-28 melanoma) | TGI (SNB-19 CNS) | TGI (SR leukemia) | TGI (COLO 205 colon) | TGI (NCI-H226 lung) | GI50 (IGROV1 ovarian) | GI50 (MOLT-4 leukemia) | GI50 (NCI-H226 lung) | GI50 (NCI-H460 lung) | GI50 (SF-295 CNS) | GI50 (SK-MEL-28 melanoma) | GI50 (SNB-19 CNS) | GI50 (COLO 205 colon) | GI50 (OVCAR-4 ovarian) | GI50 (SR leukemia) |
| --- | --- | --- | --- | --- | --- | --- | --- | --- | --- | --- | --- | --- | --- | --- | --- | --- | --- | --- | --- | --- |
| CC1(C)C=C(N2CCN(C3=CC(C)(C)NC(C)(C)C3)CC2)CC(C)(C)N1 | > 100 µM | > 100 µM | > 100 µM | > 100 µM | > 100 µM | > 100 µM | > 100 µM | > 100 µM |  |  |  |  |  |  |  |  |  |  |  |  |
| CC(O)(c1ccc(OCCC[N+](C)(C)C)cc1)C(C)(O)c1ccc(OCCC[N+](C)(C)C)cc1 (configuration not stated) | > 100 µM |  | > 100 µM | > 100 µM | > 100 µM | > 100 µM | > 100 µM |  | > 100 µM | > 100 µM |  |  |  |  |  |  |  |  |  |  |
| CCC1=CCC(P(=O)(c2ccccc2)c2ccccc2)CC1C (configuration not stated) | > 100 µM | 46.2 µM | > 100 µM | > 100 µM | > 100 µM | > 100 µM | > 100 µM |  | > 100 µM | > 100 µM |  |  |  |  |  |  |  |  |  |  |
| CCCCCCCCC1C(C)c2c([nH]c3ccccc23)C2C(=O)N(c3ccccc3)C(=O)C21 (configuration not stated) | 36.2 µM | 7.18 µM | 12.9 µM | 15.8 µM | 29.8 µM | 34.3 µM |  |  |  | 25.9 µM |  |  |  |  |  |  |  |  |  |  |
| C=C(C)C1CC=C(C)C(O)([C@@]2(O)C[C@H](C(=C)C)CC=C2C)C1 (some centres not stated) | 53.4 µM | 43.9 µM | 34.6 µM | 56.2 µM | 48.5 µM | 95.9 µM | > 100 µM | 58.1 µM |  |  |  |  |  |  |  |  |  |  |  |  |
| O=C(O)C1C2C=CC(O2)C1C(=O)NCc1ccncc1 (configuration not stated) | > 100 µM |  | > 100 µM | > 100 µM | > 100 µM | > 100 µM | > 100 µM | > 100 µM | > 100 µM | > 100 µM |  |  |  |  |  |  |  |  |  |  |
| Cc1nccc2c3ccc(OCc4cn(-c5ccc(Br)cc5)nn4)cc3n(CCCc3ccccc3)c12 | > 100 µM | > 100 µM | > 100 µM |  | > 100 µM | 3.45 µM | > 100 µM |  |  | 13.6 µM | 6.44 µM | 5.55 µM | 1.75 µM | 3.03 µM | > 100 µM | 1.72 µM | 3.35 µM |  |  |  |
| Cc1cc2oc(=O)cc(OC/C=C3/CCC(=O)O3)c2cc1C | 14.6 µM | 13.4 µM | 32.5 µM | 13.7 µM | 32 µM | 24 µM | 19 µM |  | 10.4 µM | 51.1 µM | 3.33 µM | 2.25 µM | 10.8 µM | 6.6 µM | 13.7 µM | 10.6 µM | 3.04 µM | 2.19 µM | 2.56 µM |  |
| CCCc1nn(C)c(CCC(=O)N(Cc2ccccc2)Cc2ccccc2)c1CC | > 100 µM |  | > 100 µM | > 100 µM | > 100 µM | > 100 µM | > 100 µM |  | > 100 µM | > 100 µM |  |  |  |  |  |  |  |  |  |  |
| C=C1C(=O)O[C@H]2[C@H]1CC/C(CNC(=O)C(C)c1ccc(CC(C)C)cc1)=C\CC[C@@]1(C)O[C@@H]21 (some centres not stated) | 3.43 µM | 9.66 µM | 3.97 µM | 3.13 µM | 14.7 µM | 3.32 µM | 5.67 µM |  | 3.83 µM | 3.27 µM | 1.59 µM | 2.39 µM | 1.66 µM | 1.94 µM | 3.45 µM | 1.67 µM | 2.15 µM | 1.93 µM | 1.66 µM |  |
| C=C1CCCC2OC(OC)CCC12 (configuration not stated) | > 100 µM | > 100 µM | > 100 µM | > 100 µM | > 100 µM |  | > 100 µM | > 100 µM | > 100 µM | > 100 µM |  |  |  |  |  |  |  |  |  |  |
| CC1=C(C(=O)Nc2ccccc2C)C(c2ccccc2O)C(C(=O)Nc2ccccc2C)=C(C)N1 | 37.5 µM | > 100 µM | 31.1 µM | 54.8 µM | 40.3 µM | 59.1 µM | > 100 µM | 50.8 µM |  | > 100 µM |  |  |  |  |  |  |  |  |  |  |
| CCOC(=O)Nc1cc2c(c(N)n1)N=C(c1ccccc1)CN2 |  |  | 0.485 µM | > 100 µM | 13.5 µM | 39.9 µM | > 59.5 µM | > 100 µM | 0.255 µM |  | < 0.0001 µM |  | 0.000221 µM | < 0.0001 µM | < 0.0001 µM |  | < 0.0001 µM | < 0.0001 µM |  |  |
| O=C1C(c2ccccc2)=[N+]([O-])c2cc([N+](=O)[O-])ccc21 | 53.5 µM | 51.6 µM | 56.8 µM |  | > 100 µM | 48.4 µM | > 100 µM |  | 36.9 µM | > 100 µM |  |  |  |  |  |  |  |  |  |  |
| CCCCNP1(NCCCC)=NP(NCCCC)(NCCCC)=NP(NCCCC)(NCCCC)=NP(NCCCC)(NCCCC)=N1 | 11.6 µM | 3.99 µM | 4.25 µM | 18.1 µM | 5.6 µM | 8.68 µM | 27.9 µM |  | 0.848 µM | 7.91 µM | 0.584 µM | 0.491 µM | 1.72 µM | 0.594 µM | 0.905 µM | 2.64 µM | 1.12 µM | 0.301 µM | 0.18 µM |  |
| CC1OC(OC2C(O)C(OCCc3ccc(O)c(O)c3)OC(CO)C2OC(=O)/C=C/c2ccc(O)c(O)c2)C(O)C(O)C1O (configuration not stated) | > 100 µM |  | > 100 µM | > 100 µM | > 100 µM | > 100 µM | > 100 µM | > 100 µM | > 100 µM |  | 47.6 µM |  |  | > 100 µM | 31.5 µM | 52.7 µM | > 100 µM | > 100 µM | > 100 µM | 0.634 µM |
| COc1ccccc1-c1ccc2c(N)c(C(=O)c3ccc4c(c3)OCO4)sc2n1 | 25.5 µM | > 100 µM | 16.7 µM |  | 18.5 µM | 19.9 µM | 30.2 µM | 31.1 µM | 31 µM | 31.8 µM | 7.93 µM | 4.98 µM | 7.35 µM | 4.04 µM | 3.98 µM | 5.03 µM | 7.97 µM | 10 µM |  | 2.99 µM |
| COC(=O)/C(=N\Nc1nc(=S)[nH]n1N)C(C#N)c1ccc(Cl)cc1 (configuration not stated) | > 100 µM |  | > 100 µM | > 100 µM | > 100 µM | > 100 µM | > 100 µM |  | > 100 µM | > 100 µM |  |  |  |  |  |  |  |  |  |  |
| CCC(C)C1NC(=O)C(CC(C)C)NC(=O)C(C(C)C)NC(=O)C2CSSCC(NC1=O)C(=O)N2 (configuration not stated) (cyclo(CCVLI); disulfide 1-2; configuration not given here) | 0.309 µM |  | 0.26 µM | 0.362 µM | 0.34 µM | 0.269 µM | 0.344 µM |  | 0.223 µM |  |  |  |  |  |  |  |  |  |  |  |
| Cc1ccc(-c2nc3ccccc3c(=O)n2NC2OC(CO)C(O)C(O)C2O)cc1 (configuration not stated) | > 100 µM | > 100 µM | > 100 µM | > 100 µM | > 100 µM | > 100 µM | > 100 µM |  | > 100 µM | > 100 µM |  |  |  |  |  |  |  |  |  |  |
